Assay results published in PubChem BioAssay (NCI).
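Assay format: 96-well plates, 48-hour exposure. GI50 is the concentration that inhibits growth by half. The concentration for full growth arrest is given as TGI.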

Key:
Assay in all cases: inhibition of tumour cell growth, NCI panel, 48 h
786-0 renal = system: 786-0 renal
A498 renal = system: A498 renal
A549 NSCLC = system: A549 NSCLC
ACHN renal = system: ACHN renal
BT-549 breast = system: BT-549 breast
CAKI-1 renal = system: CAKI-1 renal
CCRF-CEM leukemia = system: CCRF-CEM leukemia
COLO 205 colon = system: COLO 205 colon
DU-145 prostate = system: DU-145 prostate
EKVX NSCLC = system: EKVX NSCLC
HCC-2998 colon = system: HCC-2998 colon
HCT-116 colon = system: HCT-116 colon
HCT-15 colon = system: HCT-15 colon
HL-60(TB) leukemia = system: HL-60(TB) leukemia
HOP-62 NSCLC = system: HOP-62 NSCLC
HOP-92 NSCLC = system: HOP-92 NSCLC
HS 578T breast = system: HS 578T breast
HT29 colon = system: HT29 colon
IGROV1 ovarian = system: IGROV1 ovarian
K-562 leukemia = system: K-562 leukemia
KM12 colon = system: KM12 colon
LOX IMVI melanoma = system: LOX IMVI melanoma
M14 melanoma = system: M14 melanoma
MALME-3M melanoma = system: MALME-3M melanoma
MCF7 breast = system: MCF7 breast
MDA-MB-231 breast = system: MDA-MB-231 breast
MDA-MB-435 = system: MDA-MB-435
MOLT-4 leukemia = system: MOLT-4 leukemia
NCI-H226 lung = system: NCI-H226 lung
NCI-H23 lung = system: NCI-H23 lung
NCI-H460 lung = system: NCI-H460 lung
NCI-H522 lung = system: NCI-H522 lung
NCI/ADR-RES ovarian = system: NCI/ADR-RES ovarian
OVCAR-3 ovarian = system: OVCAR-3 ovarian
OVCAR-4 ovarian = system: OVCAR-4 ovarian
OVCAR-5 ovarian = system: OVCAR-5 ovarian
OVCAR-8 ovarian = system: OVCAR-8 ovarian
PC-3 prostate = system: PC-3 prostate
RPMI-8226 leukemia = system: RPMI-8226 leukemia
RXF 393 renal = system: RXF 393 renal
SF-268 CNS = system: SF-268 CNS
SF-295 CNS = system: SF-295 CNS
SF-539 CNS = system: SF-539 CNS
SK-MEL-2 melanoma = system: SK-MEL-2 melanoma
SK-MEL-28 melanoma = system: SK-MEL-28 melanoma
SK-MEL-5 melanoma = system: SK-MEL-5 melanoma
SK-OV-3 ovarian = system: SK-OV-3 ovarian
SN12C renal = system: SN12C renal
SNB-19 CNS = system: SNB-19 CNS
SNB-75 CNS = system: SNB-75 CNS
SR leukemia = system: SR leukemia
SW-620 colon = system: SW-620 colon
T-47D breast = system: T-47D breast
TK-10 renal = system: TK-10 renal
U251 CNS = system: U251 CNS
UACC-257 melanoma = system: UACC-257 melanoma
UACC-62 melanoma = system: UACC-62 melanoma
UO-31 renal = system: UO-31 renal

`O=C1Nc2cc(Cl)ccc2/C1=C\c1c(-c2ccc(F)cc2)nc2ccccn12` was tested. Which GI50 (786-0 renal) did it give?
The GI50 was 998 nM.

What about the TGI (786-0 renal) of the same compound?
Its TGI is 2590 nM.

What about the GI50 (A498 renal) of the same compound?
The GI50 was 1310 nM.

And the TGI (A498 renal)?
Its TGI is 6030 nM.

And the GI50 (A549 NSCLC)?
Its GI50 is 690 nM.

What about the TGI (A549 NSCLC) of the same compound?
Its TGI is 2150 nM.

What about the GI50 (ACHN renal) of the same compound?
The GI50 was 1250 nM.

And the TGI (ACHN renal)?
Its TGI is 3220 nM.

What about the GI50 (BT-549 breast) of the same compound?
The GI50 was 1210 nM.

And the TGI (BT-549 breast)?
The TGI was 5680 nM.

And the GI50 (CAKI-1 renal)?
The GI50 was 498 nM.

What about the TGI (CAKI-1 renal) of the same compound?
Its TGI is 2130 nM.

And the GI50 (CCRF-CEM leukemia)?
Its GI50 is 832 nM.

What about the TGI (CCRF-CEM leukemia) of the same compound?
The TGI was greater than 100000 nM.

What about the GI50 (COLO 205 colon) of the same compound?
Its GI50 is 552 nM.

And the TGI (COLO 205 colon)?
The TGI was 1940 nM.

What about the GI50 (DU-145 prostate) of the same compound?
Its GI50 is 1490 nM.

What about the GI50 (EKVX NSCLC) of the same compound?
Its GI50 is 2770 nM.

And the TGI (EKVX NSCLC)?
Its TGI is greater than 100000 nM.

What about the GI50 (HCC-2998 colon) of the same compound?
The GI50 was 1100 nM.

What about the TGI (HCC-2998 colon) of the same compound?
Its TGI is 2880 nM.

What about the GI50 (HCT-116 colon) of the same compound?
Its GI50 is 444 nM.

And the TGI (HCT-116 colon)?
The TGI was 1630 nM.

What about the GI50 (HCT-15 colon) of the same compound?
The GI50 was 686 nM.

And the TGI (HCT-15 colon)?
The TGI was 7260 nM.

And the GI50 (HL-60(TB) leukemia)?
The GI50 was 346 nM.

And the TGI (HL-60(TB) leukemia)?
Its TGI is 1460 nM.

What about the GI50 (HOP-62 NSCLC) of the same compound?
The GI50 was 916 nM.

And the TGI (HOP-62 NSCLC)?
The TGI was 2290 nM.

And the GI50 (HOP-92 NSCLC)?
The GI50 was 4420 nM.

What about the TGI (HOP-92 NSCLC) of the same compound?
Its TGI is 26500 nM.

And the GI50 (HS 578T breast)?
The GI50 was 1660 nM.

And the TGI (HS 578T breast)?
Its TGI is greater than 20400 nM.

What about the GI50 (HT29 colon) of the same compound?
The GI50 was 389 nM.

And the TGI (HT29 colon)?
Its TGI is 1340 nM.

What about the GI50 (IGROV1 ovarian) of the same compound?
Its GI50 is 1020 nM.

And the TGI (IGROV1 ovarian)?
Its TGI is 5820 nM.

And the GI50 (K-562 leukemia)?
Its GI50 is 320 nM.

What about the TGI (K-562 leukemia) of the same compound?
The TGI was greater than 100000 nM.

And the GI50 (KM12 colon)?
The GI50 was 573 nM.

And the TGI (KM12 colon)?
The TGI was greater than 100000 nM.

And the GI50 (LOX IMVI melanoma)?
The GI50 was 723 nM.

What about the TGI (LOX IMVI melanoma) of the same compound?
The TGI was 2650 nM.

What about the GI50 (M14 melanoma) of the same compound?
The GI50 was 510 nM.

What about the TGI (M14 melanoma) of the same compound?
Its TGI is 2570 nM.

What about the GI50 (MALME-3M melanoma) of the same compound?
The GI50 was 690 nM.

And the TGI (MALME-3M melanoma)?
The TGI was 2410 nM.

And the GI50 (MCF7 breast)?
The GI50 was 387 nM.

What about the TGI (MCF7 breast) of the same compound?
Its TGI is 2420 nM.

And the GI50 (MDA-MB-231 breast)?
The GI50 was 1480 nM.

What about the TGI (MDA-MB-231 breast) of the same compound?
Its TGI is 6380 nM.

What about the GI50 (MDA-MB-435) of the same compound?
The GI50 was 167 nM.

And the TGI (MDA-MB-435)?
The TGI was 519 nM.

What about the GI50 (MOLT-4 leukemia) of the same compound?
Its GI50 is 563 nM.

And the TGI (MOLT-4 leukemia)?
The TGI was greater than 100000 nM.

And the GI50 (NCI-H226 lung)?
Its GI50 is 1320 nM.

And the TGI (NCI-H226 lung)?
Its TGI is 3650 nM.

What about the GI50 (NCI-H23 lung) of the same compound?
The GI50 was 765 nM.

And the TGI (NCI-H23 lung)?
Its TGI is 4450 nM.

What about the GI50 (NCI-H460 lung) of the same compound?
The GI50 was 408 nM.

What about the TGI (NCI-H460 lung) of the same compound?
The TGI was 1490 nM.

What about the GI50 (NCI-H522 lung) of the same compound?
The GI50 was 239 nM.

What about the TGI (NCI-H522 lung) of the same compound?
Its TGI is 919 nM.

What about the GI50 (NCI/ADR-RES ovarian) of the same compound?
Its GI50 is 277 nM.

And the TGI (NCI/ADR-RES ovarian)?
Its TGI is 1060 nM.

What about the GI50 (OVCAR-3 ovarian) of the same compound?
Its GI50 is 424 nM.

What about the TGI (OVCAR-3 ovarian) of the same compound?
The TGI was 2970 nM.

And the GI50 (OVCAR-4 ovarian)?
Its GI50 is 1450 nM.

What about the TGI (OVCAR-4 ovarian) of the same compound?
Its TGI is 3000 nM.

What about the GI50 (OVCAR-5 ovarian) of the same compound?
Its GI50 is 1700 nM.

And the TGI (OVCAR-5 ovarian)?
The TGI was 5810 nM.

And the GI50 (OVCAR-8 ovarian)?
Its GI50 is 1980 nM.

What about the TGI (OVCAR-8 ovarian) of the same compound?
Its TGI is 8210 nM.

And the GI50 (PC-3 prostate)?
Its GI50 is 1140 nM.

And the TGI (PC-3 prostate)?
The TGI was 5390 nM.

What about the GI50 (RPMI-8226 leukemia) of the same compound?
The GI50 was 1360 nM.

What about the GI50 (RXF 393 renal) of the same compound?
The GI50 was 631 nM.

What about the TGI (RXF 393 renal) of the same compound?
The TGI was 2190 nM.

And the GI50 (SF-268 CNS)?
The GI50 was 1290 nM.

And the TGI (SF-268 CNS)?
Its TGI is greater than 24600 nM.

And the GI50 (SF-295 CNS)?
Its GI50 is 376 nM.

And the TGI (SF-295 CNS)?
The TGI was 1730 nM.

What about the GI50 (SF-539 CNS) of the same compound?
The GI50 was 915 nM.

What about the TGI (SF-539 CNS) of the same compound?
The TGI was 2950 nM.

And the GI50 (SK-MEL-2 melanoma)?
Its GI50 is 458 nM.

What about the TGI (SK-MEL-2 melanoma) of the same compound?
The TGI was 2190 nM.

And the GI50 (SK-MEL-28 melanoma)?
The GI50 was 995 nM.

What about the TGI (SK-MEL-28 melanoma) of the same compound?
The TGI was 4590 nM.

And the GI50 (SK-MEL-5 melanoma)?
Its GI50 is 559 nM.

And the TGI (SK-MEL-5 melanoma)?
Its TGI is 2040 nM.

What about the GI50 (SK-OV-3 ovarian) of the same compound?
The GI50 was 1050 nM.

And the TGI (SK-OV-3 ovarian)?
The TGI was 2420 nM.

And the GI50 (SN12C renal)?
Its GI50 is 1030 nM.

What about the GI50 (SNB-19 CNS) of the same compound?
The GI50 was 1150 nM.

And the TGI (SNB-19 CNS)?
The TGI was 22100 nM.

What about the GI50 (SNB-75 CNS) of the same compound?
The GI50 was 304 nM.

What about the TGI (SNB-75 CNS) of the same compound?
The TGI was 1340 nM.

And the GI50 (SR leukemia)?
The GI50 was 112 nM.

What about the TGI (SR leukemia) of the same compound?
The TGI was greater than 100000 nM.

And the GI50 (SW-620 colon)?
The GI50 was 445 nM.

What about the TGI (SW-620 colon) of the same compound?
The TGI was 2600 nM.

And the GI50 (T-47D breast)?
The GI50 was 1120 nM.

And the TGI (T-47D breast)?
Its TGI is 2960 nM.

What about the GI50 (TK-10 renal) of the same compound?
Its GI50 is 1380 nM.

What about the TGI (TK-10 renal) of the same compound?
Its TGI is 2990 nM.

What about the GI50 (U251 CNS) of the same compound?
Its GI50 is 541 nM.

And the TGI (U251 CNS)?
Its TGI is 2090 nM.

What about the GI50 (UACC-257 melanoma) of the same compound?
Its GI50 is 5020 nM.

What about the TGI (UACC-257 melanoma) of the same compound?
The TGI was 48500 nM.

And the GI50 (UACC-62 melanoma)?
The GI50 was 546 nM.

And the TGI (UACC-62 melanoma)?
The TGI was 12400 nM.

And the GI50 (UO-31 renal)?
The GI50 was 686 nM.

What about the TGI (UO-31 renal) of the same compound?
Its TGI is 2700 nM.
